In article PMC10017709, “Structural basis of selective cannabinoid CB2 receptor activation” (Nature Communications, 2023):
Several values for one entry are separate records, joined by “and”; a condition that tells them apart may be missing. Equal values may be shown once.

What was measured:
CB2R-Quadruple^TM1,7 [1] = target: T1, CB2R-Quadruple^TM1,7 (Homo sapiens, UniProt P34972, C40S/K279T/K33Q/V36I); experiment: [35S]GTPγS assay, CB2R quadruple mutant; type: biochemical; conditions: for [35S]GTPγS binding: QuadrupleTM1,7, individual replicates
CB2R-S285^7.39A = CB2R-S285^7.39A (Homo sapiens, UniProt P34972, S285A); experiment: [35S]GTPγS assay, CB2R S285A mutant; type: biochemical; conditions: S285A mutant
CB1R I267ECL2L = CB1R I267ECL2L (Homo sapiens, UniProt P21554, I267L); experiment: [35S]GTPγS assay, CB1R I267L mutant; type: biochemical
CB2R-I110^3.29L = CB2R-I110^3.29L (Homo sapiens, UniProt P34972, I110L); experiment: [3H]CP55,940 displacement assay, CB2R I110L mutant; type: binding; conditions: for percentage specific [3H]CP55,940 binding: I1103.29L, individual replicates
CB1R-H270^ECL2L = CB1R-H270^ECL2L (Homo sapiens, UniProt P21554, H270L); experiment: [35S]GTPγS assay, CB1R H270L mutant; type: biochemical
CB2R-F117^3.36A = CB2R-F117^3.36A (Homo sapiens, UniProt P34972, F117A); experiment: [35S]GTPγS assay, CB2R F117A mutant; type: biochemical
CB2R WT = CB2R WT (Homo sapiens, UniProt P34972); experiment: [35S]GTPγS G protein activation assay, CB2R WT; type: biochemical; conditions: for Emax (%): CB2R WT; for [35S]GTPγS binding, percentage of CP55,940: individual replicates
CB2R-Quadruple^TM1,7 [2] = target: T1, CB2R-Quadruple^TM1,7; experiment: [3H]CP55,940 displacement assay, CB2R quadruple mutant; type: binding; conditions: for percentage specific [3H]CP55,940 binding: QuadrupleTM1,7, individual replicates
CB1R-L359^6.51V = CB1R-L359^6.51V (Homo sapiens, UniProt P21554, L359V); experiment: [35S]GTPγS assay, CB1R L359V mutant; type: biochemical
CB1R-L359^6.51V, sequence (P21554 whole entry L359V): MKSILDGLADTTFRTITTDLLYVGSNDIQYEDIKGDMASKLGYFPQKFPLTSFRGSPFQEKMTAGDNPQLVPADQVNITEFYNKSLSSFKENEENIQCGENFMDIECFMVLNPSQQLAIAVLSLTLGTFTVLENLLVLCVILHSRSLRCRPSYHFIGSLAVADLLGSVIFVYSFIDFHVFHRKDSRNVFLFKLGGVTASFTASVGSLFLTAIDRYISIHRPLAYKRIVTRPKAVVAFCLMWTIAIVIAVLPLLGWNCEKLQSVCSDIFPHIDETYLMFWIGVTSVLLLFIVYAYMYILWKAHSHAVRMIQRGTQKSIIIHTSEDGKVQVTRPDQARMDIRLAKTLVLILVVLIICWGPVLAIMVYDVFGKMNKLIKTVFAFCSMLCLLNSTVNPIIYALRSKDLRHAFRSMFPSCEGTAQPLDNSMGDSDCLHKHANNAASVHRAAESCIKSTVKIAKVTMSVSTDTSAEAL

CB1R-H270^ECL2L, sequence (P21554 whole entry H270L): as the sequence (P21554 whole entry L359V) above, with H270L, V359L counted along it
CB2R-I110^3.29L, sequence (P34972 whole entry I110L): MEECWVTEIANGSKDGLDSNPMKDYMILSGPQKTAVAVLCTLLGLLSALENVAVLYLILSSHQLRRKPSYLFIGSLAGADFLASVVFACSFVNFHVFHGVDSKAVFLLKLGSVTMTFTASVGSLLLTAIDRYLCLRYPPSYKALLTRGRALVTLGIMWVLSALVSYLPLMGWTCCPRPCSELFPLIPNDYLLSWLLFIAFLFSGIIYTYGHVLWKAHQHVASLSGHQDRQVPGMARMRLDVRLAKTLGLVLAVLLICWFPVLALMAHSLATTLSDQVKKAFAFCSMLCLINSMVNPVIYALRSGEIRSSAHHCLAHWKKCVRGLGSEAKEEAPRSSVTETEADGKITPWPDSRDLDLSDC
CB1R I267ECL2L, sequence (P21554 whole entry I267L): as the sequence (P21554 whole entry L359V) above, with I267L, V359L counted along it
CB2R-F117^3.36A, sequence (P34972 whole entry F117A): as the sequence (P34972 whole entry I110L) above, with L110I, F117A counted along it
CB2R WT, sequence (P34972 whole entry): as the sequence (P34972 whole entry I110L) above, with L110I counted along it
T1 sequence (P34972 whole entry K33Q/V36I/C40S/K279T): as the sequence (P34972 whole entry I110L) above, with K33Q, V36I, C40S, L110I, K279T counted along it
CB2R-S285^7.39A, sequence (P34972 whole entry S285A): as the sequence (P34972 whole entry I110L) above, with L110I, S285A counted along it

EC50 (CB2R-Quadruple^TM1,7 [1]; Quadruple TM1,7 mutant, <5 when curve fit not finished): 0.631 µM | Emax (%) (CB2R-Quadruple^TM1,7 [1]; Quadruple TM1,7 mutant, at 10 µM compared to WT): 27 ± 5% | EC50 (CB2R-S285^7.39A; HEK293T membranes): 0.501 µM | pEC50 (CB2R-S285^7.39A; HEK293T membranes): no significant effect | Emax (%) (CB2R-S285^7.39A; at 10 µM compared to WT): 45 ± 8% | Agonist-mediated activation (CB1R I267ECL2L; CB1R I267L, 10 µM agonist): 1.0 ± 0.0 fold over its basal | pKi (CB2R-I110^3.29L; CB2R I110L mutant, [3H]CP55,940): remained similar | percentage specific [3H]CP55,940 binding (CB2R-I110^3.29L; log [ligand] (M) -5): 3.91% and 2.37% and 4.51% | percentage specific [3H]CP55,940 binding (CB2R-I110^3.29L; log [ligand] (M) -6): 9.98% and 9.21% and 3.23% | percentage specific [3H]CP55,940 binding (CB2R-I110^3.29L; log [ligand] (M) -7): 39.17% and 30.03% and 31.46% | percentage specific [3H]CP55,940 binding (CB2R-I110^3.29L; log [ligand] (M) -8): 86.59% and 79.23% and 85.93% | percentage specific [3H]CP55,940 binding (CB2R-I110^3.29L; log [ligand] (M) -9): 105.91% and 105.22% and 104.46% | percentage specific [3H]CP55,940 binding (CB2R-I110^3.29L; log [ligand] (M) -10): 128.52% and 108.89% and 100.89% | Ki (CB2R-I110^3.29L; read-out: pKi (converted)): 0.0126 µM | Agonist-mediated activation (CB1R-H270^ECL2L; CB1R H270L, 10 µM agonist): 1.2 ± 0.0 fold over its basal | Emax (%) (CB2R-F117^3.36A; F117A mutant, at 10 µM compared to WT): 11 ± 11% | Emax (%) (CB2R WT; maximum effect at 10 µM compared to WT (Suppl. Table 6)): 103 ± 3% | Emax (%) (CB2R WT; maximum effect compared to CP55,940): 76 ± 1% | EC50 (CB2R WT; [35S]GTPγS, HEK293T membranes transiently expressing CB2R WT): 0.126 µM | [35S]GTPγS binding, percentage of CP55,940 (CB2R WT; log [agonist] (M) -5): 76.96% and 72.92% and 77.27% | [35S]GTPγS binding, percentage of CP55,940 (CB2R WT; log [agonist] (M) -6): 47.32% and 54.96% and 57.48% | [35S]GTPγS binding, percentage of CP55,940 (CB2R WT; log [agonist] (M) -7): 8.09% and 19.22% and 13.61% | [35S]GTPγS binding, percentage of CP55,940 (CB2R WT; log [agonist] (M) -8): 7.23% and 9.98% and 7.81% | [35S]GTPγS binding, percentage of CP55,940 (CB2R WT; log [agonist] (M) -9): -12.88% and -8.32% and -11.10% | [35S]GTPγS binding, percentage of CP55,940 (CB2R WT; log [agonist] (M) -10): -4.61% and 18.64% and -19.45% | Ki (CB2R-Quadruple^TM1,7 [2]; CB2R Quadruple TM1,7 mutant, <5 when curve fit not finished): 0.158 µM | percentage specific [3H]CP55,940 binding (CB2R-Quadruple^TM1,7 [2]; log [ligand] (M) -5): 5.19% and 45.81% and -26.38% | percentage specific [3H]CP55,940 binding (CB2R-Quadruple^TM1,7 [2]; log [ligand] (M) -6): 60.64% and 32.84% and -34.85% | percentage specific [3H]CP55,940 binding (CB2R-Quadruple^TM1,7 [2]; log [ligand] (M) -7): 75.38% and 92.54% and 80.13% | percentage specific [3H]CP55,940 binding (CB2R-Quadruple^TM1,7 [2]; log [ligand] (M) -8): 120.94% and 110.56% and 172.31% | percentage specific [3H]CP55,940 binding (CB2R-Quadruple^TM1,7 [2]; log [ligand] (M) -9): 139.03% and 122.04% and 167.10% | percentage specific [3H]CP55,940 binding (CB2R-Quadruple^TM1,7 [2]; log [ligand] (M) -10): 103.18% and 81.86% and 136.81% | Agonist-mediated activation (CB1R-L359^6.51V; CB1R L359V, 10 µM agonist): 1.1 ± 0.1 fold over its basal
Compound: CC(C)CN1C(=O)CN(Cc2ccc(-c3ccc(F)c(CNC4CCOCC4)n3)cc2)C1=O [LEI-102, 1-(4-(5-fluoro-6-(((tetrahydro-2H-pyran-4-yl)amino)methyl)pyridin-2-yl)benzyl)-3-isobutylimidazolidine-2,4-dione]
[35S]GTPγS binding (CB2R-Quadruple^TM1,7 [1]; log [ligand] (M) -5): 19.02 percentage of WT and 26.25 percentage of WT and 35.32 percentage of WT | [35S]GTPγS binding (CB2R-Quadruple^TM1,7 [1]; log [ligand] (M) -6): 18.24 percentage of WT and 27.33 percentage of WT and 15.57 percentage of WT | [35S]GTPγS binding (CB2R-Quadruple^TM1,7 [1]; log [ligand] (M) -7): -20.33 percentage of WT and 5.34 percentage of WT | [35S]GTPγS binding (CB2R-Quadruple^TM1,7 [1]; log [ligand] (M) -8): -17.90 percentage of WT and -15.60 percentage of WT and -7.82 percentage of WT | [35S]GTPγS binding (CB2R-Quadruple^TM1,7 [1]; log [ligand] (M) -9): -5.85 percentage of WT and 6.13 percentage of WT and -3.78 percentage of WT | G protein activation, fold over its basal (CB1R I267ECL2L; CB1R I267ECL2L, individual replicates): 1.03 fold over its basal and 1.063 fold over its basal and 1.016 fold over its basal | G protein activation, fold over its basal (CB1R-H270^ECL2L; CB1R H270ECL2L, individual replicates): 1.101 fold over its basal and 1.221 fold over its basal and 1.256 fold over its basal | [35S]GTPγS binding (CB2R-F117^3.36A; F1173.36A, log [ligand] (M) -5, individual replicates): -10.74 percentage of WT and 22.02 percentage of WT and 22.63 percentage of WT | G protein activation, fold over its basal (CB1R-L359^6.51V; CB1R L3596.51V, individual replicates): 1.125 fold over its basal and 1.294 fold over its basal and 0.998 fold over its basal
